Measurements from patent US20210221890A1, “COMBINATION OF BETA-ADRENERGIC RECEPTOR ANTAGONISTS AND CHECK POINT INHIBITORS FOR IMPROVED EFFICACY AGAINST CANCER” (Health Research, Inc., priority 2015, published 2021).

Experiments:
[1] = system: murine pancreatic tumor (Pan02); test: Pan02 pancreatic tumor growth in C57BL/6 mice; assay type: in vivo
Protocol: To obtain the data presented in FIG. 1, a murine pancreatic tumor (Pan02) was engrafted in C57BL/6 mice. When tumors reached an average size of 50-100 mm^3, tumor bearing mice were assigned to one of four experimental groups and treatment was initiated. Groups of mice received: (1) saline (control), (2) anti-PD-1 antibody (BIO X CELL®, 200 μg/dose every 3 days), (3) the β-adrenergic signaling antagonist propranolol (10 mg/kg daily by intraperitoneal injection) or (4) combination therapy. Tumor growth was monitored and graphed as relative tumor volume compared to each tumor's starting volume. […] The data accordingly indicate that the combination therapy can be effective against pancreatic tumors that are resistant to treatment with the checkpoint inhibitor alone.

4T1 breast cancer model = 4T1 breast cancer model tumor growth in BALB/c mice; assay type: in vivo; conditions: 4T1 in BALB/c mice; propranolol started three days before anti-PD-1

## CC(C)NCC(O)COc1cccc2ccccc12 (stereo not drawn) [propranolol]
[1]; Pan02 in C57BL/6 mice, anti-PD-1 200 μg/dose every 3 days, propranolol 10 mg/kg daily i.p., Students t-test
  tumor growth (relative tumor volume compared to starting volume): neither anti-PD-1 nor propranolol alone caused a statistically significant decrease in tumor growth
[1]; propranolol added to anti-PD-1, Pan02 tumors in C57BL/6 mice, p<0.05
  efficacy of anti-PD-1 checkpoint inhibition: significantly improved the efficacy of anti-PD-1 checkpoint inhibition
4T1 breast cancer model
  tumor growth (absolute and relative tumor volume): neither propranolol nor anti-PD-1 mAb alone has any impact on tumor growth
